Broadly, the EC50 is the midpoint of the concentration-response curve. A word on the AC50: it is the midpoint of the concentration-response curve, whichever way the signal moves.

Assay [1] has as its system Streptococcus sp. 'group A'. Put plainly: Streptococcus pyogenes SK(-)GAS viability under kanamycin – luminescence, BacTiterGlo, confirmation, counter-screen for streptokinase expression inhibitor project, dose response (AID 1900). Type of assay: functional, organism-based. On the technique in general: Counterscreens check selectivity or assay interference.
Assay [2] has as its target T1, Streptokinase A (Streptococcus pyogenes serotype M1, UniProt P10520).
T1 sequence (P10520 whole entry): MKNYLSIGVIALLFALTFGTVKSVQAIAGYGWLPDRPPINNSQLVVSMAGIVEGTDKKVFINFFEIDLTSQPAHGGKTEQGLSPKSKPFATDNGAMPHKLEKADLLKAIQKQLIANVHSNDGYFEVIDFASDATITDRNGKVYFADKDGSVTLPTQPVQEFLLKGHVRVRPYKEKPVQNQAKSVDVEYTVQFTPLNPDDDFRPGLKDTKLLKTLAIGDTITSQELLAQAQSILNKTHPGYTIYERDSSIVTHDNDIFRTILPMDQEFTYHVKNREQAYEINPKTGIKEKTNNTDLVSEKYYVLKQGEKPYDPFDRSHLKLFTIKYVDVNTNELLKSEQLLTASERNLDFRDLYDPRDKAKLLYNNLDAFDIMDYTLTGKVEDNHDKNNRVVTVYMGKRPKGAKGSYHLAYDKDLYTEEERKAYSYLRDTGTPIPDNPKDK
Briefly: viability-normalized secreted streptokinase activity reduction – plasminogen activation absorbance, OD405, dose response (AID 1914).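 Further: secreted streptokinase activity via plasminogen activation per viability signal from cell pellet.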 The assay is classed as functional, Streptococcus pyogenes M1 GAS.

For assay [3], the system named is Streptococcus. Put plainly: GAS UMAA2166 growth inhibition – luminescence, BacTiterGlo, counter-screen for streptokinase expression inhibitor project, dose response (AID 1915).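 Further: potency for reduction of bacterial viability or growth.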 The assay is classed as functional, organism-based.
The target of assay [4] is Cytochrome P450 2C9 (Homo sapiens, UniProt P11712).
Assay [5] deals with T2, Heat shock factor protein 1 (Mus musculus, UniProt P38532).
T2 sequence (P38532 whole entry): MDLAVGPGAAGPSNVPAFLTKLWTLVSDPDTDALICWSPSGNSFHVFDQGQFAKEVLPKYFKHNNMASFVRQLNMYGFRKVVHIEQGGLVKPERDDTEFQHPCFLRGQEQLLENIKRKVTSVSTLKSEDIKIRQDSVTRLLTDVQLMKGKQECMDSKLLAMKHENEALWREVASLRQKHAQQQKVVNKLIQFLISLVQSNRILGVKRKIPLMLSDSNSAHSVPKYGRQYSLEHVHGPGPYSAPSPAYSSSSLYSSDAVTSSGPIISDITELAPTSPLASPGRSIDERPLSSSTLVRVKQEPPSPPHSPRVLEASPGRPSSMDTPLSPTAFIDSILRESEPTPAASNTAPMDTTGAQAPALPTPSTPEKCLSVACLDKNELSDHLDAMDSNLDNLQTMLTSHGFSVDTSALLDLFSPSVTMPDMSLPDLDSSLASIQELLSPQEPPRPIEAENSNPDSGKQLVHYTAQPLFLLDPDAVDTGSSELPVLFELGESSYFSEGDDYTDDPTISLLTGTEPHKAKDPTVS
Put plainly: enhancement of HSF1-driven luciferase signal – cell-based, NIH3T3, luminescence, dose retest, confirmation (AID 435004).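 Further: stress induced by proteasome inhibitor MG132 added 30 min after compound; luciferase reporter driven by HSF1 response element in NIH3T3 cells; actives raise luminescence as potentiators of the MG132 stress response.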 The assay is classed as functional.

Assay [6] can be described thus: non-specific 3'UTR reporter inhibition in Clone20-Shn3RL – cell-based, Renilla luciferase, cherry-picked, counter-screen for Shn3 inhibitor project, dose response (AID 624133). The assay is classed as functional.
Assay [7] is described as follows: loss of viability in HepG2 cells – cell-based, CellTiter-Glo, cherry-picked, cytotoxicity control for Shn3 inhibitor project, dose response (AID 624134). Type of assay: functional.
Assay [8] can be described thus: reduction of Shn3 3'UTR-driven luciferase in osteoblasts – cell-based, Clone20 osteoblasts, firefly luciferase, cherry-picked, dose response (AID 624132).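 Further: firefly luciferase luminescence from reporter carrying the Shn3 3'UTR in osteoblasts.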 Type of assay: functional.
In assay [9] the target is T3, Protein RecA (Mycobacterium tuberculosis, UniProt P9WHJ3).
T3 sequence (P9WHJ3 whole entry): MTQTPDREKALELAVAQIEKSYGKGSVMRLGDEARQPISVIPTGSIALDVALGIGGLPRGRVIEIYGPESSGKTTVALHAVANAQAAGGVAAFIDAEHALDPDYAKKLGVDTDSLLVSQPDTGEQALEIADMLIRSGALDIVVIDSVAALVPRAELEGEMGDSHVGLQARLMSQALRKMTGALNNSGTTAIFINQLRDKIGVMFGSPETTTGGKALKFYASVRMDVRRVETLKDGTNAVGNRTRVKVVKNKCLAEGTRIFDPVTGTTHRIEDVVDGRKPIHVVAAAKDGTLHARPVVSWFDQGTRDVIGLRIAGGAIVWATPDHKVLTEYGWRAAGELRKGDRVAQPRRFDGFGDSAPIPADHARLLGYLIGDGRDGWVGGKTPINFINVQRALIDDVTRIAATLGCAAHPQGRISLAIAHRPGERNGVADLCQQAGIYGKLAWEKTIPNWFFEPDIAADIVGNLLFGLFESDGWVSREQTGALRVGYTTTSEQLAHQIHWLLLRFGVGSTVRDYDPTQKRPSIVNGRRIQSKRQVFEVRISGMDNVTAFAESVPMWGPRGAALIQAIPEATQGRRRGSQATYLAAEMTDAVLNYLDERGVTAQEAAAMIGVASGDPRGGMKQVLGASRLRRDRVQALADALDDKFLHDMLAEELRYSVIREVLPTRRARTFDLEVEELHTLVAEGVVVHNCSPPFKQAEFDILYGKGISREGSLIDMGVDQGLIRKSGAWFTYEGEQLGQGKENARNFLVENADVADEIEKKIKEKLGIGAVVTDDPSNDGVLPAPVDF
Briefly: Fluorescence Cell-Free Homogeneous Dose Retest to Identify Inhibitors of RecA-Intein Splicing Activity. [Related pubchem assays (depositor defined):AID2097, AID2223, AID489010, AID492950]. The assay is classed as functional.

For assay [10], the target named is Cytochrome P450 2C19 (Homo sapiens, UniProt P33261). Briefly: Cytochrome panel assay with activity outcomes. Panel member name: p450-cyp2c19 Compounds with AC50 equal or less than 10 uM are considered active. The assay is classed as functional. Particulars: read-out: AC50.

The source made the active and inactive calls.

Chain of Cytochrome P450 2C9 (P11712 whole entry): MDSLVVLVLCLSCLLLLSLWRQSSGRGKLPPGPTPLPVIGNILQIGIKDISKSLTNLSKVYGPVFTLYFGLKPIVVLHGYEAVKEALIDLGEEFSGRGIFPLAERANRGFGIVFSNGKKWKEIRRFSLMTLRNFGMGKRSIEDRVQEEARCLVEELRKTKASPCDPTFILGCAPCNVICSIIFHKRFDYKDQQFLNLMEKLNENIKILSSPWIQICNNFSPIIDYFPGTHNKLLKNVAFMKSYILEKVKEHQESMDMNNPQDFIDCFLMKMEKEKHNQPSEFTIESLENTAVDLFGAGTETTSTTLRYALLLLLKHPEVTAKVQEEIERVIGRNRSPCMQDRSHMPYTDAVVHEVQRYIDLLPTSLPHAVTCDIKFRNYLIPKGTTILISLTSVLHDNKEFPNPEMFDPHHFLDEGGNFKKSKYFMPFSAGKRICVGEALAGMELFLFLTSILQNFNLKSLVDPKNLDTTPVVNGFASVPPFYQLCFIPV
Chain of Cytochrome P450 2C19 (P33261 whole entry): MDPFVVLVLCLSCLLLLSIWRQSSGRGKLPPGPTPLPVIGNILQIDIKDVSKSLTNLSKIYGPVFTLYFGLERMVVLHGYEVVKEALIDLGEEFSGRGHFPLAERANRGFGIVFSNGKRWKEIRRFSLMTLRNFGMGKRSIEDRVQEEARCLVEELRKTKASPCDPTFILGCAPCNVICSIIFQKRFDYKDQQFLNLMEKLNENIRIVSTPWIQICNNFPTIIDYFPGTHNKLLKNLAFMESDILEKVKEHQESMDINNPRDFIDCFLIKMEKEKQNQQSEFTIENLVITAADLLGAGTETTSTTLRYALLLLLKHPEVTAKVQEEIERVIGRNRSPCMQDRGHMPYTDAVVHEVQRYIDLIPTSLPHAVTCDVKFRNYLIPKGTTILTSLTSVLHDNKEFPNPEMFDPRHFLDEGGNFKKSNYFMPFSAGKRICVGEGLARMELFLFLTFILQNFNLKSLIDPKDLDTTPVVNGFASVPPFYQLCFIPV

For the compound `Cc1cc(NC(=S)N(Cc2ccc(Cl)cc2)Cc2ccc(C(=O)O)cc2)ccc1Cl`, the EC50 in [1] was 10.1 µM (active); in [2] it was > 150 µM (not active); in [3], > 150 µM (not active).
Consider `COc1cc(-c2ccc(NC(=O)NC3CC3)c(OC)c2)ccc1NC(=O)NC1CC1`, for which the EC50 was 117 µM (active) in [1], > 150 µM (not active) in assay [2] and 135 µM (active) in assay [3].
For `O=c1cc2c(nn1Cc1ccc(Cl)cc1Cl)-c1ccccc1CC2`, in that order: 7.36 µM (active), 11 µM (active) and 17.6 µM (active).
Take `COCC(=O)N1CCC2(CCCN(c3ccc(-c4ccccc4)cc3)C2)CC1`: the AC50 in assay [4] is 20 µM (inconclusive).
Still for that read-out and setting: the figure for `O=[N+]([O-])c1cccc(-c2nc(-c3ccncc3)no2)c1` is 8.91 µM (inconclusive).
As for `Oc1cc(O)nc(SCc2ccc(Cl)cc2)n1`, the EC50 in assay [1] is 81.5 µM (active); in assay [2], > 150 µM (not active); in [3], > 150 µM (not active).
As for `COc1cccc(CNCC(O)(c2ccc(Cl)cc2)c2ccc(Cl)cc2)c1`, the EC50 is 3.15 µM (active) in [1], 18.9 µM (active) in [2] and 18.2 µM (active) in assay [3].
For the compound `CCn1c(SCC(=O)c2ccccc2)nnc1-c1cccs1`, in [4], the AC50 was 28.2 µM (inconclusive).
In the case of `COc1ccc(N=C(S)Nc2ccccc2SC)c(OC)c1`, the EC50 in assay [5] is > 260 µM (inactive).
Same read-out and setting: the result for `O=C(NCc1ccco1)C1CC(O)CN1C(=O)Nc1ccccc1` (centres undefined) reads > 260 µM (inactive).
Take `COc1cc(OC)c(OC)cc1CNC(=O)c1cccc(S(=O)(=O)N2CCc3ccccc3C2)c1`: the AC50 in assay [6] is 24 µM (active); in assay [7], 3.08 µM (active); in [8] it was 2.39 µM (active).
In the case of `COc1ccc(C)cc1Cn1c(S(C)(=O)=O)nc2ccccc21`, the EC50 in [5] is > 260 µM (inactive).
`O=C(/C=C/c1ccc(Cl)cc1)NCCSc1ccccc1`: the AC50 in assay [4] is 5.01 µM (inconclusive).
Regarding `Cn1c(CCC(=O)OCC(=O)Nc2ccc(Oc3ccccc3)cc2)nc(=O)c2ccccc21`, the EC50 in assay [5] is > 260 µM (inactive).
On the same count and under the same terms, the figure for `O=S(=O)(NC(=Nc1cccc2ccccc12)c1ccccc1)c1ccc(F)cc1` is > 260 µM (inactive).
Turning to `COc1ccc(S(=O)(=O)NCC(c2ccc(F)cc2)N2CCN(C)CC2)cc1` (centres undefined), the EC50 in [1], in assay [2] and in assay [3] was > 150 µM (not active) each time.
On to `Cn1c(=O)c2c(nc(NCCO)n2C)n(C)c1=O`, for which the EC50 in assay [5] was > 260 µM (inactive).
Take `CC(=O)c1cccc(NS(=O)(=O)c2ccc(N/C=C\C(=O)c3ccc(C)cc3)cc2)c1`: the AC50 is 19.6 µM (active) in assay [6], > 70 µM (inactive) in assay [7] and 1.51 µM (active) in [8].
For `Cc1ccc(-c2csc3ncnc(O)c23)c(C)c1`, the EC50 in assay [5] was > 260 µM (inactive).
Regarding `N#Cc1ccccc1COC(=O)c1cc(=O)c2ccccc2o1`, the EC50 in [5] is > 260 µM (inactive).
Turning to `COCCN1C(=O)c2ccccc2C(C(=O)Nc2ccc3c(c2)OCCO3)C1c1ccc(F)cc1` (centres undefined), the AC50 in assay [4] was 35.5 µM (inconclusive).
With `Cc1ccccc1OCC(=O)Nc1ccccc1N1CCCCC1`, the EC50 was 9.64 µM (active) in [1], 14.2 µM (active) in assay [2], 17.9 µM (active) in assay [3] and 242 µM (active) in [9].
Turning to `COC(=O)C/C=C\[C@@H](C)[C@@H](/C=N\O[C@@H](C)c1cc(-c2c(C)cc(C)cc2C)no1)OC`, the results for the AC50 in assay [4] and in assay [10] were 3.16 µM (inconclusive) and 2.51 µM (inconclusive), respectively.
Regarding `CCOC(=O)c1cc(-c2ccc3c(c2)OCCO3)nc2c1c(C)nn2CCC#N`, the EC50 in assay [1] is 4.49 µM (active); in assay [2], > 150 µM (not active); in [3], 17.6 µM (active).
`CCCCNc1c(-c2ccc(OC)c(SC3CCCCC3)c2)nc2cnccn12`: the EC50 in [1] is 4.63 µM (active); in assay [2], 6.56 µM (active); in assay [3], 8.16 µM (active).
Take `O=C(COC(=O)C1CSC2(c3ccc(F)cc3)CCC(=O)N12)NC(=O)NC1CCCC1` (centres undefined): in assay [5], the EC50 is > 260 µM (inactive).
In the case of `CCN(CC)S(=O)(=O)c1ccc2c(c1)nc(SCC(=O)NC1CC1)n2-c1ccccc1OC`, the EC50 in assay [5] was > 260 µM (inactive).
Regarding `CCCCCCCCCCCCN1C(=O)CSC1c1cccnc1` (centres undefined), the results for the EC50 in [1], in assay [2] and in assay [3] were 6.74 µM (active), 20.4 µM (active) and > 150 µM (not active), respectively.
Turning to `CC(C)c1ccc(/C(C(=O)O)=C(\O)C(=O)O)cc1`, the AC50 in [4] is 3.16 µM (inconclusive).
With `Cc1cccc(N2C(=N)SCC2=O)c1C`, in assay [5], the EC50 was > 260 µM (inactive).
For `Cc1cc(C)n(-c2cc(=O)n(C)c(=O)n2C)n1`, the EC50 in assay [5] was > 260 µM (inactive).
Turning to `O=C(NNC(=O)c1ccccc1-n1cccc1)c1ccccc1`, the values for the AC50 in [4] and in assay [10] were 35.5 µM (inconclusive) and 11.2 µM (inconclusive), respectively.
On to `CCc1nnc(N/N=C/c2ccccc2Cl)n1N`, for which the EC50 in assay [5] was > 260 µM (inactive).
On to `CCN1CCN(Cc2ccc(NC(=O)c3ccc(C)c(NC(=O)c4cncc(-c5cccs5)c4)c3)cc2C(F)(F)F)CC1`, for which the AC50 in assay [6] is 0.898 µM (active); in assay [7] it was 7.28 µM (active); in assay [8], 0.808 µM (active).
Consider `O=C1C(CC[S+]([O-])c2ccccc2)C(=O)N(c2ccccc2)N1c1ccccc1` (centres undefined) [SULFINPYRAZONE], for which the AC50 in [4] is 10 µM (inconclusive).

Values taken from ChEMBL document CHEMBL1201862, “PubChem BioAssay data set” (2004).
